What was measured:
Assay in all cases: relative viability (nuclei count vs DMSO), 5 days (fraction); higher = more cells survive
SK-MES-1 = system: SK-MES-1
Procedure, shortened: (§1)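 Lung cancer cell lines in 1536-well plates were dosed by pin tool the day after seeding, either with one drug alone or with a fixed anchor-drug dose plus five library-drug doses (not always all listed) in √10 steps. After 5 days, cells were fixed and their nuclei stained in one step (final 0.05% Triton X-100, 1% formaldehyde, 1 ug/ml Hoechst), then counted on 4× images. Relative viability is the nuclei count in treated wells divided by that in vehicle wells. Values are medians of duplicate plates.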

NCI-H647 = system: NCI-H647
Procedure, shortened: as §1

NCI-H1755 = system: NCI-H1755
Procedure, shortened: as §1

NCI-H1734 = system: NCI-H1734
Procedure, shortened: as §1

NCI-H838 = system: NCI-H838
Procedure, shortened: as §1

COR-L23 = system: COR-L23
Procedure, shortened: as §1

NCI-H2342 = system: NCI-H2342
Procedure, shortened: as §1

NCI-H358 = system: NCI-H358
Procedure, shortened: as §1

NCI-H322M = system: NCI-H322M
Procedure, shortened: as §1

COR-L 105 = system: COR-L 105
Procedure, shortened: as §1

HARA = system: HARA
Procedure, shortened: as §1

NCI-H1355 = system: NCI-H1355
Procedure, shortened: as §1

PC-14 = system: PC-14
Procedure, shortened: as §1

NCI-H522 = system: NCI-H522
Procedure, shortened: as §1

NCI-H2009 = system: NCI-H2009
Procedure, shortened: as §1

EKVX = system: EKVX
Procedure, shortened: as §1

HOP-62 = system: HOP-62
Procedure, shortened: as §1

NCI-H2347 = system: NCI-H2347
Procedure, shortened: as §1

NCI-H2228 = system: NCI-H2228
Procedure, shortened: as §1

UMC-11 = system: UMC-11
Procedure, shortened: as §1

NCI-H1993 = system: NCI-H1993
Procedure, shortened: as §1

NCI-H1793 = system: NCI-H1793
Procedure, shortened: as §1

NCI-H1395 = system: NCI-H1395
Procedure, shortened: as §1

NCI-H2170 = system: NCI-H2170
Procedure, shortened: as §1

Clc1ccc(Nc2nnc(Cc3ccncc3)c3ccccc23)cc1 [Vatalanib] + CCNC(=O)c1noc(-c2cc(C(C)C)c(O)cc2O)c1-c1ccc(CN2CCOCC2)cc1 [Luminespib] (partner 0.01 µM)
relative viability (SK-MES-1; first compound 0.04 µM): 0.745
relative viability (SK-MES-1; first compound 0.1265 µM): 0.845
relative viability (SK-MES-1; first compound 0.4 µM): 1.05
relative viability (SK-MES-1; first compound 1.265 µM): 0.679
relative viability (SK-MES-1; first compound 4 µM): 0.6
relative viability (NCI-H647; first compound 0.04 µM): 0.128
relative viability (NCI-H647; first compound 0.1265 µM): 0.0977
relative viability (NCI-H647; first compound 0.4 µM): 0.169
relative viability (NCI-H647; first compound 1.265 µM): 0.187
relative viability (NCI-H647; first compound 4 µM): 0.138
relative viability (NCI-H1755; first compound 0.04 µM): 0.419
relative viability (NCI-H1755; first compound 0.1265 µM): 0.439
relative viability (NCI-H1755; first compound 0.4 µM): 0.556
relative viability (NCI-H1755; first compound 1.265 µM): 0.316
relative viability (NCI-H1755; first compound 4 µM): 0.453
relative viability (NCI-H1734; first compound 0.04 µM): 0.224
relative viability (NCI-H1734; first compound 0.1265 µM): 0.153
relative viability (NCI-H1734; first compound 0.4 µM): 0.193
relative viability (NCI-H1734; first compound 1.265 µM): 0.167
relative viability (NCI-H1734; first compound 4 µM): 0.192
relative viability (NCI-H838; first compound 0.04 µM): 0.326
relative viability (NCI-H838; first compound 0.1265 µM): 0.267
relative viability (NCI-H838; first compound 0.4 µM): 0.244
relative viability (NCI-H838; first compound 1.265 µM): 0.305
relative viability (NCI-H838; first compound 4 µM): 0.378
relative viability (COR-L23; first compound 0.04 µM): 0.715
relative viability (COR-L23; first compound 0.1265 µM): 0.666
relative viability (COR-L23; first compound 0.4 µM): 0.835
relative viability (COR-L23; first compound 1.265 µM): 0.646
relative viability (COR-L23; first compound 4 µM): 0.588
relative viability (NCI-H2342; first compound 0.04 µM): 0.684
relative viability (NCI-H2342; first compound 0.1265 µM): 0.684
relative viability (NCI-H2342; first compound 0.4 µM): 0.822
relative viability (NCI-H2342; first compound 1.265 µM): 0.869
relative viability (NCI-H2342; first compound 4 µM): 0.658
relative viability (NCI-H358; first compound 0.04 µM): 0.498
relative viability (NCI-H358; first compound 0.1265 µM): 0.381
relative viability (NCI-H358; first compound 0.4 µM): 0.353
relative viability (NCI-H358; first compound 1.265 µM): 0.345
relative viability (NCI-H358; first compound 4 µM): 0.308
relative viability (NCI-H322M; first compound 0.04 µM): 0.849
relative viability (NCI-H322M; first compound 0.1265 µM): 0.798
relative viability (NCI-H322M; first compound 0.4 µM): 0.877
relative viability (NCI-H322M; first compound 1.265 µM): 0.793
relative viability (NCI-H322M; first compound 4 µM): 0.909
relative viability (COR-L 105; first compound 0.04 µM): 0.814
relative viability (COR-L 105; first compound 0.1265 µM): 0.7
relative viability (COR-L 105; first compound 0.4 µM): 0.877
relative viability (COR-L 105; first compound 1.265 µM): 0.843
relative viability (COR-L 105; first compound 4 µM): 0.74
relative viability (HARA; first compound 0.04 µM): 0.682
relative viability (HARA; first compound 0.1265 µM): 0.617
relative viability (HARA; first compound 0.4 µM): 0.669
relative viability (HARA; first compound 1.265 µM): 0.738
relative viability (HARA; first compound 4 µM): 0.591
relative viability (NCI-H1355; first compound 0.04 µM): 0.74
relative viability (NCI-H1355; first compound 0.1265 µM): 0.675
relative viability (NCI-H1355; first compound 0.4 µM): 0.748
relative viability (NCI-H1355; first compound 1.265 µM): 0.656
relative viability (NCI-H1355; first compound 4 µM): 0.738
relative viability (PC-14; first compound 0.04 µM): 0.155
relative viability (PC-14; first compound 0.1265 µM): 0.19
relative viability (PC-14; first compound 1.265 µM): 0.158
relative viability (PC-14; first compound 4 µM): 0.149
relative viability (NCI-H522; first compound 0.04 µM): 1.02
relative viability (NCI-H522; first compound 0.1265 µM): 1.23
relative viability (NCI-H522; first compound 0.4 µM): 1.2
relative viability (NCI-H522; first compound 1.265 µM): 1.15
relative viability (NCI-H522; first compound 4 µM): 1.1
relative viability (NCI-H2009; first compound 0.04 µM): 1.11
relative viability (NCI-H2009; first compound 0.1265 µM): 0.983
relative viability (NCI-H2009; first compound 0.4 µM): 1.06
relative viability (NCI-H2009; first compound 1.265 µM): 0.962
relative viability (NCI-H2009; first compound 4 µM): 1.04
relative viability (EKVX; first compound 0.04 µM): 0.904
relative viability (EKVX; first compound 0.1265 µM): 0.805
relative viability (EKVX; first compound 0.4 µM): 0.876
relative viability (EKVX; first compound 4 µM): 0.852
relative viability (HOP-62; first compound 0.04 µM): 0.928
relative viability (HOP-62; first compound 0.1265 µM): 0.925
relative viability (HOP-62; first compound 0.4 µM): 0.895
relative viability (HOP-62; first compound 1.265 µM): 0.883
relative viability (HOP-62; first compound 4 µM): 0.959
relative viability (NCI-H2347; first compound 0.04 µM): 0.416
relative viability (NCI-H2347; first compound 0.1265 µM): 0.425
relative viability (NCI-H2347; first compound 0.4 µM): 0.254
relative viability (NCI-H2347; first compound 1.265 µM): 0.549
relative viability (NCI-H2347; first compound 4 µM): 0.509
relative viability (NCI-H2228; first compound 0.04 µM): 0.145
relative viability (NCI-H2228; first compound 0.1265 µM): 0.102
relative viability (NCI-H2228; first compound 0.4 µM): 0.163
relative viability (NCI-H2228; first compound 1.265 µM): 0.115
relative viability (NCI-H2228; first compound 4 µM): 0.157
relative viability (UMC-11; first compound 0.04 µM): 1.08
relative viability (UMC-11; first compound 0.1265 µM): 1.11
relative viability (UMC-11; first compound 0.4 µM): 0.996
relative viability (UMC-11; first compound 1.265 µM): 1.02
relative viability (UMC-11; first compound 4 µM): 1.01
relative viability (NCI-H1993; first compound 0.04 µM): 0.955
relative viability (NCI-H1993; first compound 0.1265 µM): 0.958
relative viability (NCI-H1993; first compound 0.4 µM): 0.865
relative viability (NCI-H1993; first compound 1.265 µM): 0.71
relative viability (NCI-H1993; first compound 4 µM): 0.82
relative viability (NCI-H1793; first compound 0.04 µM): 0.156
relative viability (NCI-H1793; first compound 0.1265 µM): 0.19
relative viability (NCI-H1793; first compound 0.4 µM): 0.192
relative viability (NCI-H1793; first compound 1.265 µM): 0.166
relative viability (NCI-H1793; first compound 4 µM): 0.2
relative viability (NCI-H1395; first compound 0.04 µM): 0.668
relative viability (NCI-H1395; first compound 0.1265 µM): 0.65
relative viability (NCI-H1395; first compound 0.4 µM): 0.834
relative viability (NCI-H1395; first compound 1.265 µM): 0.66
relative viability (NCI-H1395; first compound 4 µM): 0.674
relative viability (NCI-H2170; first compound 0.04 µM): 0.79
relative viability (NCI-H2170; first compound 0.1265 µM): 0.644
relative viability (NCI-H2170; first compound 0.4 µM): 0.715
relative viability (NCI-H2170; first compound 1.265 µM): 0.641
relative viability (NCI-H2170; first compound 4 µM): 0.692

Source: the supplement of paper PMC10307832
